From ChEMBL document CHEMBL1137425, “Design, synthesis and evaluation of novel uracil amino acid conjugates for the inhibition of Trypanosoma cruzi dUTPase” (Bioorg Med Chem Lett, 2006)

Tests used:
[1] = test system: Trypanosoma cruzi; assay: Antitrypanosomal activity against Trypanosoma cruzi; type: functional, organism-based
[2] = target: T1, Deoxyuridine triphosphatase (Trypanosoma cruzi (strain CL Brener), UniProt Q4DI50); assay: Inhibition of Trypanosoma cruzi dUTPase at 1 mM
T1 sequence (Q4DI50 whole entry): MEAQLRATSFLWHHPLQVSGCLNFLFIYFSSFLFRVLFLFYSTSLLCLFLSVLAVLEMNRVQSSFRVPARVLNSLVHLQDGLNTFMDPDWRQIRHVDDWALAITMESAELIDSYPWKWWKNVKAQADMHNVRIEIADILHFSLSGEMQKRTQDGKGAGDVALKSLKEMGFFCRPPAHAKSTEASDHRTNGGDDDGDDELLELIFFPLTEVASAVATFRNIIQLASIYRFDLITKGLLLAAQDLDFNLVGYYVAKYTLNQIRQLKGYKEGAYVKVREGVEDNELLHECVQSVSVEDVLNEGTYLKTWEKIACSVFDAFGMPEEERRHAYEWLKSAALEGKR

[3] = test system: L6; assay: Cytotoxicity against rat L6 cells; type: functional, cell-based

Row | Compound | IC50 [1] [µM] | Ki [2] [µM] | IC50 [3] [µM]
1 | C[C@H](NC(=O)Cn1ccc(=O)[nH]c1=O)C(=O)N[C@@H](CC(=O)O)C(=O)O | > 84 | > 1000 | > 252
2 | C[C@H](NC(=O)Cn1ccc(=O)[nH]c1=O)C(=O)N[C@@H](CCC(N)=O)C(=O)O | > 81 | > 1000 | > 243
3 | C[C@H](NC(=O)Cn1ccc(=O)[nH]c1=O)C(=O)N[C@@H](CCCCN)C(=O)O | > 81 | > 1000 | > 243
4 | O=C(Cn1ccc(=O)[nH]c1=O)NCC(=O)N[C@@H](Cc1ccc(O)cc1)C(=O)O | > 76 | > 1000 | > 230
5 | C[C@H](NC(=O)Cn1ccc(=O)[nH]c1=O)C(=O)N[C@@H](CCC(=O)O)C(=O)O | > 81 | > 1000 | 210
6 | C[C@H](NC(=O)Cn1ccc(=O)[nH]c1=O)C(=O)N[C@@H](Cc1ccc(O)cc1)C(=O)O | > 74 | > 1000 | 214
7 | O=C(Cn1ccnc1[N+](=O)[O-])NCc1ccccc1 [BENZNIDAZOLE] | 1.04 |  | 
8 | O=c1ccn([C@H]2C[C@H](O)[C@@H](COP(=O)(O)O)O2)c(=O)[nH]1 [DEOXYURIDINE MONOPHOSPHATE] |  | 18.4 | 
9 | COc1cc([C@@H]2c3cc4c(cc3[C@H](O)[C@H]3COC(=O)[C@H]23)OCO4)cc(OC)c1OC [PODOFILOX] |  |  | 0.15

Further lines, with some results ahead:

Row | IC50 [1] [µM] | Ki [2] [µM] | Compound | IC50 [3] [µM]
10 | > 100 | > 1000 | C[C@H](NC(=O)Cn1ccc(=O)[nH]c1=O)C(=O)NCC(=O)O | > 301
11 | > 87 | > 1000 | C[C@H](NC(=O)Cn1ccc(=O)[nH]c1=O)C(=O)N[C@H](C(=O)O)[C@@H](C)O | > 262
12 | > 84 | > 1000 | NCCCC[C@H](NC(=O)CNC(=O)Cn1ccc(=O)[nH]c1=O)C(=O)O | > 253
13 | > 132 | > 1000 | O=C(O)CNC(=O)Cn1ccc(=O)[nH]c1=O | > 396
14 | > 91 | > 1000 | C[C@@H](O)[C@H](NC(=O)CNC(=O)Cn1ccc(=O)[nH]c1=O)C(=O)O | > 274
